Literature values as cited in patent publication US20010027177A1, “Pharmaceutical composition containing a small or medium size peptide” (priority 2000, published 2001).

How the values were obtained:
[1] = solutions free from preservative; polystyrene, polypropylene and glass tubes; 24 hours at room temperature
[2] = adsorption to glass bottles and plastic tubing used in giving sets

## NC(=O)CC[C@@H]1NC(=O)[C@H](Cc2ccccc2)NC(=O)[C@H](Cc2ccc(O)cc2)NC(=O)CCSSC[C@@H](C(=O)N2CCC[C@H]2C(=O)N[C@H](CCCN=C(N)N)C(=O)NCC(N)=O)NC(=O)[C@H](CC(N)=O)NC1=O [desmopressin, 1-deamino-8-D-arginin-vasopressin]
[1]
  loss of active principle because of adsorption by the walls: lose about the half of active principle

## benzalkonium chloride
Nasal ciliar motility
  effect on nasal ciliar motility: irreversible suppression of the nasal ciliar motility

## insulin: peptide drug cited for adsorption to glass bottles and plastic tubing
[2]
  losses of activity/potency because of adsorption: ≤ 78.8%
